Assay: gradient 5% acetonitrile 3 min, to 50% in 2 min, to 85% in 15 min, held 3 min, 100 µL/min
Conditions: column: Zorbax Extend-C18 2.1 x 50 mm; eluents: water / acetonitrile, 0.1% formic acid
Method in brief: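 The system's dead and dwell volumes were 40 μL and 900 μL, with a Zorbax Extend-C18 column (2.1 × 50 mm, 1.8 μm) run at 100 μL/min in water and acetonitrile containing 0.1% formic acid each. Pure standards were analyzed in mixtures of ~100 molecules by HPLC–quadrupole time-of-flight mass spectrometry in positive and negative ionization mode. Retention time was assigned from computationally picked, manually inspected adduct peaks.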

| SMILES | RP-LC retention time [s] |
| --- | --- |
| CC(C)c1noc(COC2CCN(C(=O)Cn3ccnc3)CC2)n1 | 592 |
| COCCC(=O)Nc1cnc(-c2ccc(C(F)(F)F)cc2)nc1 | 895 |
| CC(C)(C)CNC(=O)c1cc(=O)[nH]c2ccccc12 | 869 |
| COC(=O)C1=C(C)N(Cc2ccccc2)C(=O)NC1c1ccccc1[N+](=O)[O-] (centres undefined) | 856 |
| COCCn1cc(C(=O)N2CCCc3ccccc32)c2nn(-c3ccccc3)c(=O)c-2c1 | 943 |
| COc1ccc(NC(=O)Nc2ccc(-c3cn4ccc(C)nc4n3)cc2)cc1 | 626 |
| C[C@@H]1CN(C(=O)Cc2cccnc2)C[C@H]1c1nc(-c2ccncc2)no1 | 568 |
| Cc1ccc(C(=O)N2CCC(n3c(C)cnc3C)C2)s1 (centres undefined) | 585 |
| Cn1cnc2c(C(=O)N3CCN(c4ncccn4)CC3)nn(-c3ccc(Cl)cc3)c2c1=O | 766 |
| O=C1OC(Cc2ccccc2)C(c2ccccc2)C1=O (centres undefined) | 976 |
| O=C(NCc1nc(-c2cccc(-c3ccn[nH]3)c2)no1)c1ccccc1 | 741 |
| Clc1ccc2nc(-c3ccccc3)c(Nc3ccc4c(c3)OCO4)n2c1 | 781 |
| CC1CCCC(NC(=O)Cn2cnc3onc(-c4ccc(Cl)cc4)c3c2=O)C1C (centres undefined) | 1100 |
| CCc1onc(C)c1C1CCCN1C(=O)Nc1ccc(C)cc1 (centres undefined) | 844 |
| Cc1cc(F)ccc1NC(=O)c1cc(C(C)C)n2nccc2n1 | 1140 |
| COc1ccc(NC(=O)N2CCN(c3cnn4c(C)nnc4c3)CC2)cc1 | 594 |
| O=S(=O)(NCCC1=CCCCC1)c1ccc(-c2cc(C(F)(F)F)on2)o1 | 1240 |
| Cc1cccc(NC(=O)C2CCN(S(C)(=O)=O)c3ccccc3O2)c1 (centres undefined) | 895 |
| CCn1ccc(C(=O)Nc2cnc(-c3cccc(Cl)c3)nc2)n1 | 1020 |
| COCCOC1CCN(S(=O)(=O)c2ccccc2C)CC1 | 810 |
| COc1cc(-c2oc3cc(O)cc(O)c3c(=O)c2O[C@@H]2O[C@H](CO)[C@@H](O)[C@H](O)[C@H]2O)cc(OC)c1O | 619 |
| COc1ccc(CNC(=O)CN2C(=O)CSc3cccn3-c3ccccc32)c(OC)c1 | 868 |
| CC(C)N1CCN(Cc2nc(-c3ccc(N4CCSCC4)nc3)no2)CC1 | 614 |

| SMILES | RP-LC retention time [s] |
| --- | --- |
| Cc1cccc(-c2noc(C3CCCN3C(=O)Nc3ccccc3)n2)c1 (centres undefined) | 980 |
| O=C(Nc1nc2ccccc2s1)C1CCN(C(=O)c2ccccc2Cl)CC1 | 829 |
| CCc1nc2cc(N3CCCC(C(=O)NC(C)C)C3)cnc2nc1CC (centres undefined) | 747 |
| Cc1cc(CN2CCC(CNC(=O)c3ccc(S(=O)(=O)N(C)C)cc3)CC2)c(C)o1 | 574 |
| Cn1nc(C(=O)N2CCCC2)c2c1CCN(C(=O)CCC(=O)N1CCN(c3ccccc3)CC1)C2 | 701 |
| Cc1ccc(Nc2c(-c3ccccc3O)nc3ncccn23)cc1Cl | 738 |
| O=C(c1ccc(-c2noc(C3CC3)n2)cc1)N1CCN(c2nc3cccnc3o2)CC1 | 793 |
| CN1C(=O)c2cc(C(=O)NCCC3=CCCCC3)nn2CC1(C)C(=O)NCc1ccccc1 (centres undefined) | 853 |
| Cc1ccc(NC(=O)Cn2nc(N3CCOCC3)c3ccccc3c2=O)cc1 | 789 |
| O=C(O)c1cn2ccnc(-c3ccccc3)c2n1 | 644 |
| Cc1ccc(NC(=O)c2cc3c(s2)CN(C2CCCC2)C3)c(C)c1 | 663 |
| O=C(NCc1csc(-c2cccs2)n1)C1CCN(S(=O)(=O)c2ccc(Cl)cc2)CC1 | 927 |
| O=C(Cc1ccc(Cl)cc1)Nc1ccsc1-c1nnc(C2CC2)o1 | 1190 |
| Cn1cnc(S(=O)(=O)N2CCC(Oc3ccc(-c4noc(C5CC5)n4)cc3)C2)c1 (centres undefined) | 788 |
| CN1CCN(C(=O)C2CCN(c3nc4ccc(-c5ccccc5)nc4s3)CC2)CC1 | 672 |
| O=c1c2nnc3c(-c4ccccc4)cnn3c2ccn1CCc1c[nH]c2ccccc12 | 917 |
| CC(=O)c1ccc(NC(=O)Cn2nc3c4cc(-c5ccccc5)nn4ccn3c2=O)cc1 | 818 |
| CCN1CCN(C(=O)c2n[nH]c3c2CC(C)CC3)CC1 (centres undefined) | 567 |
| Cc1cccc(NS(=O)(=O)c2ccc(-c3nnc(C4CCC4)o3)o2)c1 | 924 |
| Cc1noc(C2CN(CCc3ccccc3)CC23CCCC3)n1 (centres undefined) | 674 |
| Nc1nc(N2CCOCC2)ncc1C(=O)NCc1ccccc1 | 609 |
| O=C(OCn1nnc2ccccc2c1=O)c1ccccc1[N+](=O)[O-] | 1030 |
| O=C(Nc1ccc(Cl)cc1)N1CCN(CCn2cnc3cccnc32)CC1 | 604 |

| SMILES | RP-LC retention time [s] |
| --- | --- |
| CSc1cccc2sc(N(Cc3ccco3)C(=O)c3ccc(C#N)cc3)nc12 | 1110 |
| CCN1c2ccc(Cl)cc2C(=O)NC12CCN(C(=O)Nc1ccccc1OC)CC2 | 895 |
| COCCN1C(=O)CS(=O)(=O)C12CCN(C(=O)C1(c3ccc(OC)cc3)CC1)CC2 | 661 |
| CC(C(=O)Nc1ccc(Cl)cc1)C1CCN(C(=O)Nc2ccccc2)CC1 (centres undefined) | 910 |
| CSc1ccc(-c2nc3cnccn3c2Nc2cc(C)cc(C)c2)cc1 | 1070 |
| O=S(=O)(NC1CCCCC1)c1ccc(-c2nnc(C3CCCC3)o2)o1 | 1020 |
| COc1ccc(NC(=O)C2CCN(S(=O)(=O)c3cc(C(=O)N4CCOCC4)cs3)CC2)cc1 | 721 |
| O=C(c1ccc(OCC2CCN(C(=O)c3cccs3)CC2)cc1)N1CCOCC1 | 747 |
| CC1CCN(C(=O)C2c3ccccc3CCN2CC(=O)Nc2ccc(F)cc2Cl)CC1 (centres undefined) | 936 |
| O=C(Cn1cccc(-c2nc(-c3ccccc3)no2)c1=O)Nc1cc(C(F)(F)F)ccc1Cl | 1040 |
| CCOc1ccc(NC(=O)N2CCC3(CC2)NC(=O)c2ccccc2N3CC)cc1 | 785 |
| CCC(C)NC(=O)C1(c2ccc(NS(=O)(=O)CC)cc2)CCCCC1 (centres undefined) | 887 |
| CN(C)S(=O)(=O)c1ccc2c(c1)N(CC(=O)NCCCN1CCCC1)C(=O)C1CCCCN21 (centres undefined) | 614 |
| Cc1ccc(C(CC(=O)NCCCN2CCCC2)N2Cc3ccccc3C2=O)cc1 (centres undefined) | 639 |
| O=C(CCc1nc2ccccc2[nH]1)NCC1CCOCC1 | 555 |
| O=C(O)c1ccc2c(c1Nc1ccccc1)C(=O)c1ccccc1C2=O | 1020 |
| COc1ccc(-c2cn3c(CC(=O)Nc4cc(Cl)ccc4OC)csc3n2)cc1 | 847 |
| COc1cc(OC)cc(C(=O)Nc2nc3c(s2)Cc2c(Br)ccc(OC)c2-3)c1 | 1210 |
| O=C(O)c1cc(-c2ccc(Cl)s2)nc2ccccc12 | 1070 |
| CC(C)OCCCNC(=O)C1Cn2cccc2C(=O)N1 (centres undefined) | 602 |
| Cc1ccccc1-c1nnc(CSc2nnc(NC(=O)c3ccccc3C(F)(F)F)s2)o1 | 972 |
| COc1ccc(CN(C)Cc2cc(=O)n3cc(Cl)ccc3n2)cc1 | 624 |
| Cc1nn2c(CNS(=O)(=O)c3ccc(F)c(F)c3)c(-c3ccccc3)nc2s1 | 906 |

| SMILES | RP-LC retention time [s] |
| --- | --- |
| NC(=O)c1ccccc1NC(=O)CCCn1cnc(-c2ccc(F)cc2)cc1=O | 666 |
| CCN(CC)c1nc2cc(C(=O)OC)ccc2c(=O)n1-c1ccc(C)cc1 | 1210 |
| O=S(=O)(c1ccc2c(c1)-c1oncc1CO2)N1CCC2(CC1)OCCO2 | 827 |
| CC(C)NC(=O)c1ccc(OCC2CCN(C(=O)Cc3ccc(F)cc3)CC2)cc1 | 860 |
| CC(C)n1c(N2CCN(C(=O)C3CC(=O)N(CCc4ccccc4)C3)CC2)cc(=O)n(C(C)C)c1=O (centres undefined) | 786 |
| CCOc1ncccc1CNC(=O)c1ccc2nc[nH]c2c1 | 569 |
| CSc1cccc(NC(=O)NCCNc2nc(C)cc(N(C)C)n2)c1 | 583 |
| O=C(Nc1ccc(Cl)cc1)C1CC(=O)N(CCc2c[nH]c3ccc(F)cc23)C1 (centres undefined) | 857 |
| CCCCn1cc(S(=O)(=O)Nc2ccc(Cl)cc2)c2cccnc21 | 1020 |
| COc1ccc(NC(=O)N2CC(N(Cc3ccncc3)CC(C)C)C2)cc1OC | 622 |
| Cc1cccc(NC(=O)N2CCCC2C(=O)NC2CC2)c1 (centres undefined) | 655 |
| COc1ccc2nc(C(=O)NCc3ccccc3)cn2n1 | 772 |
| COc1cc(-c2nc(Cn3c(C)nc4ccccc4c3=O)no2)cc(OC)c1OC | 801 |
| CC(C)C(=O)NCc1cnn(-c2ccc(C(=O)N(C)Cc3ccco3)cc2)c1 | 696 |
| O=c1ccc(-c2ccc3c(c2)OCO3)nn1CCc1nc(-c2ccc(Cl)c(F)c2)no1 | 1050 |
| CCOC(=O)c1sc(NC(=O)c2cc(OC)ccc2OC)cc1C | 1000 |
| COc1cc(C(=O)N2CCN(c3c(C)n(C)c(=O)n(C)c3=O)CC2)cc(OC)c1OC | 673 |
| CCn1cc(CN2C[C@@H](COC)[C@H](c3ccccn3)C2)c(C)n1 | 573 |
| CCC(=O)N1CC(=O)Nc2ccc(Br)cc2C1c1ccccc1 (centres undefined) | 749 |
| Cn1nccc1-c1cccc(-c2noc(-c3ccnc(Cl)c3)n2)c1 | 1050 |

Reference: the METLIN SMRT retention time set (Domingo-Almenara et al. 2019)
